For 22 compounds, EC50 results are on record in patent publication US20190002452A1 (GUANGZHOU HENOVCOM BIOSCIENCE CO., LTD, priority 2016, published 2019).

This assay has as its target T1, human farnesol receptor protein hFXR (Homo sapiens, UniProt Q96RI1).
T1 construct: hexahistidine (His6)
T1 sequence (Q96RI1 1-486): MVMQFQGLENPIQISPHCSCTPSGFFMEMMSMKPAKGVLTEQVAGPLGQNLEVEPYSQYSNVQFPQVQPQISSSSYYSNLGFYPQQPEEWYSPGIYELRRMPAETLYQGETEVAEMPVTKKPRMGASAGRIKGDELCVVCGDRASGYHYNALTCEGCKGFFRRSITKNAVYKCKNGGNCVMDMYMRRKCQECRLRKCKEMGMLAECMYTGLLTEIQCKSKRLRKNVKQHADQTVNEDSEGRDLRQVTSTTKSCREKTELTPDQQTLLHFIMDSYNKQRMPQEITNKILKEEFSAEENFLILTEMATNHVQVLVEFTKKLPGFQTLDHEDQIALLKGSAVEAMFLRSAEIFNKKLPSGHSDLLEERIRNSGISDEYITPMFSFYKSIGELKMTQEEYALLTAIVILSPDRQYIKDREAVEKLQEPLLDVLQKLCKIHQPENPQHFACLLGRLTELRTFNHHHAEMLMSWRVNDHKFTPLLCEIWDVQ
Description: AlphaScreen assay of FXR agonist activity in vitro: effect on binding between human farnesol receptor protein and its coactivator (SRC1-2). Format: biochemical. The following applies: hFXR 100 nM, peptide bSRC1-2 50 nM, 2 hr incubation at room temperature. The method, then: FXR agonist activity in vitro for the chemicals prepared in the above examples is measured.
AlphaScreen-based assays are performed with a hexahistidine detection kit manufactured by Perkins-Elmer, for measuring the effect of chemical compounds on the binding between human farnesol receptor protein and its coactivator (SRC1-2), the method is shown as follows:
1) Preparing a mixture comprising human farnesol receptor protein hFXR (100 nM, 15 μL/well), peptide bSRC1-2 (50 nM, 15 μL/well), 10× AlphaScreen buffer solution (15 μL/well and DI water (60 μL/well), and then transferring 105 μL/well of the mixture to a 96-well plate; 2) Diluting the chemicals prepared in the above examples by twice gradient 12×, with 15 μL/well; 3) Adding donor beads and acceptor beads, 30 μL/well in total; (attention: the beads are light-sensitive) 4) Incubating in dark at room temperature for 2 hr; 5) Transferring 40 μL/well of the mixture to a 384-well plate with 3 replicates, and then centrifuging at 1000 rpm for 1 min, to make liquid mixed well underneath the wells. (attention: photopathic operation); 6) In a dark room, reading the plate (by Homogeneous luminescent immunoassay system) to obtain EC50 with a GraphPad Prism5 software.
On the technique in general: Bead proximity is the source of the signal in Alpha formats.
As usually defined, the EC50 is the concentration giving half of the maximal effect. Low values mean higher potency in that assay, high ones lower potency in that assay. In the case of `O=C(O)c1ccc2nc(N3CC4CCCC(C3)C4OCc3c(-c4c(Cl)cccc4Cl)noc3C3CC3)sc2c1` (stereo not shown) [Example 28, 2-(9-((5-cyclopropyl-3-(2,6-dichlorophenyl)isoxazol-4-yl)methoxy)-3-azazbicyclo[3.3.1]nonan-3-yl) benzo[d]thiazole-6-carboxylic Acid], the half-maximal effective concentration (EC50) is less than 100 nM. `O=C(O)c1cc2cc(N3CCC4(CC(OCc5c(-c6c(Cl)cccc6Cl)noc5C5CC5)C4)C3)ccc2o1` (stereo not shown) [Example 29] yielded a concentration giving a half-maximal response (EC50) of less than 100 nM. The result for `O=C(O)c1cc2ccc(N3CCC4(CC(OCc5c(-c6c(Cl)cccc6Cl)noc5C5CC5)C4)C3)cc2s1` (stereo not shown) [Example 30, 6-(2-((5-cyclopropyl-3-(2,6-dichlorophenyl)isoxazol-4-yl)methoxy)-6-azaspiro[3.4]octan-6-yl) benzothiophene-2-carboxylic Acid] reads 100 to 1000 nM. Next, `O=C(O)c1nsc2cc(N3CCC4(CC(OCc5c(-c6c(Cl)cccc6Cl)noc5C5CC5)C4)C3)ccc12` (stereo not shown) [Example 31, 6-(2-((5-cyclopropyl-3-(2,6-dichlorophenyl)isoxazol-4-yl)methoxy)-6-azaspiro[3.4]octan-6-yl) benzo[d]isothiazole-3-carboxylic Acid]: less than 100 nM; `Cn1c(C(=O)O)cc2cc(N3CCC4(CC(OCc5c(-c6c(Cl)cccc6Cl)noc5C5CC5)C4)C3)ccc21` (stereo not shown) [Example 32, 5-(2-((5-cyclopropyl-3-(2,6-dichlorophenyl)isoxazol-4-yl)methoxy)-6-azaspiro[3.4]octan-6-yl)-1-methyl-1H-indole-2-carboxylic Acid]: 100 to 1000 nM.

`Cn1cc(C(=O)O)c2ccc(N3CCC4(CC(OCc5c(-c6c(Cl)cccc6Cl)noc5C5CC5)C4)C3)cc21` (stereo not shown) [Example 33, 6-(2-((5-cyclopropyl-3-(2,6-dichlorophenyl)isoxazol-4-yl)methoxy)-6-azaspiro[3.4]octan-6-yl)-1-methyl-1H-indole-3-carboxylic Acid] registered an EC50 of 100 to 1000 nM. Regarding `O=C(O)c1ccc2nc(N3CCC4(CC(OCc5c(-c6c(Cl)cccc6Cl)noc5C5CC5)C4)C3)ccc2c1` (stereo not shown) [Example 34, 2-(2-((5-cyclopropyl-3-(2,6-dichlorophenyl)isoxazol-4-yl)methoxy)-6-azaspiro[3.4]octan-6-yl)quinolin-6-carboxylic Acid], the half-maximal effective concentration (EC50) lay within 100 to 1000 nM. Turning to `O=C(O)c1cnc(N2CCC3(CC(OCc4c(-c5c(Cl)cccc5Cl)noc4C4CC4)C3)C2)cn1` (stereo not shown) [Example 35, 5-(2-((5-cyclopropyl-3-(2,6-dichlorophenyl)isoxazol-4-yl)methoxy)-6-azaspiro[3.4]octan-6-yl)pyrazine-2-carboxylic Acid], the EC50 is less than 100 nM. Turning to `O=C(O)c1cccc(N2CCC3(CC(OCc4c(-c5c(Cl)cccc5Cl)noc4C4CC4)C3)C2)n1` (stereo not shown) [Example 36, 6-(2-((5-cyclopropyl-3-(2,6-dichlorophenyl)isoxazol-4-yl)methoxy)-6-azaspiro[3.4]octan-6-yl)pyridine-2-carboxylic Acid], the EC50 fell in the range of 100 to 1000 nM. With `O=C(O)c1ccc(N2CCC3(CC(OCc4c(-c5c(Cl)cccc5Cl)noc4C4CC4)C3)C2)c(F)c1` (stereo not shown) [Example 37, 4-(2-((5-cyclopropyl-3-(2,6-dichlorophenyl)isoxazol-4-yl)methoxy)-6-azaspiro[3.4]octan-6-yl)-3-fluorobenzoic Acid], the concentration for a half-maximal effect (EC50) is 100 to 1000 nM. As to `O=C(O)c1ccc2nc(N3CCC4(CC(OCc5c(-c6c(F)cccc6F)noc5C5CC5)C4)C3)sc2c1` (stereo not shown) [Example 38], the EC50 lay in the range of 100 to 1000 nM. Take `O=C(O)c1ccc2nc(N3CCC4(CC(OCc5c(-c6c(F)cccc6F)noc5C5CC5)C4)C3)oc2c1` (stereo not shown) [Example 39, 2-(2-((5-cyclopropyl-3-(2,6-difluorophenyl)isoxazol-4-yl)methoxy)-6-azaspiro[3.4]octan-6-yl) benzo[d]oxazole-6-carboxylic Acid]: the EC50 was 100 to 1000 nM. `O=C(O)c1ccc2nc(N3CCc4cc(OCc5c(-c6c(F)cccc6F)noc5C5CC5)ccc4C3)sc2c1` [Example 40, 2-(6-((5-cyclopropyl-3-(2,6-difluorophenyl)isoxazol-4-yl)methoxy)-3,4-dihydroisoquinolin-2(1H)-yl) benzo[d]thiazole-6-carboxylic Acid] returned a concentration giving a half-maximal response (EC50) of less than 100 nM. The result for `O=C(O)c1ccc2nc(N3CCC4(CC(OCc5c(-c6ccccc6C(F)(F)F)noc5C5CC5)C4)C3)sc2c1` (stereo not shown) [Example 41, 2-(2-((5-cyclopropyl-3-(2-trifluoromethylphenyl)isoxazol-4-yl)methoxy)-6-azaspiro[3.4]octan-6-yl) benzo[d]thiazole-6-carboxylic Acid] reads 100 to 1000 nM; that for `O=C(O)c1ccc2nc(N3CCC4(CC(OCc5c(-c6ccccc6C(F)(F)F)noc5C5CC5)C4)C3)oc2c1` (stereo not shown) [Example 42, 2-(2-((5-cyclopropyl-3-(2-trifluoromethylphenyl)isoxazol-4-yl)methoxy)-6-azaspiro[3.4]octan-6-yl) benzo[d]oxazole-6-carboxylic Acid], 100 to 1000 nM; that for `O=C(O)c1ccc2nc(N3CCc4cc(OCc5c(-c6ccccc6C(F)(F)F)noc5C5CC5)ccc4C3)sc2c1` [Example 43, 2-(6-((5-cyclopropyl-3-(2-trifluoromethylphenyl)isoxazol-4-yl)methoxy)-3,4-dihydroisoquinolin-2(1H)-yl) benzo[d]thiazole-6-carboxylic Acid], less than 100 nM. In turn, `O=C(O)c1ccc(N2CCC3(CC(OCc4c(-c5c(Cl)cccc5Cl)noc4C4CC4)C3)C2)nc1` (stereo not shown) [Example 44, 6-(2-((5-cyclopropyl-3-(2,6-dichlorophenyl)isoxazol-4-yl)methoxy)-6-azaspiro[3.4]octan-6-yl) pyridine-3-carboxylic Acid] showed an EC50 of less than 100 nM. Compound `O=C(O)c1ccc(N2CCC3(CC(OCc4c(-c5c(Cl)cccc5Cl)noc4C4CC4)C3)C2)cn1` (stereo not shown) [Example 45] gave a half-maximal effective concentration (EC50) of 100 to 1000 nM. With `O=C(O)c1ccc(N2CCC3(CC(OCc4c(-c5c(Cl)cccc5Cl)noc4C4CC4)C3)C2)nn1` (stereo not shown) [Example 46, 6-(2-((5-cyclopropyl-3-(2,6-dichlorophenyl)isoxazol-4-yl)methoxy)-6-azaspiro[3.4]octan-6-yl) pyridazine-3-carboxylic Acid], the EC50 is less than 100 nM. `CS(=O)(=O)NC(=O)c1ccc2nc(N3CCC4(CC(OCc5c(-c6c(Cl)cccc6Cl)noc5C5CC5)C4)C3)sc2c1` (stereo not shown) [Example 47, 2-(2-((5-cyclopropyl-3-(2,6-dichlorophenyl)isoxazol-4-yl)methoxy)-6-azaspiro[3.4]octan-6-yl)-N-(methylsulfonyl)benzo[d]thiazole-6-carboxamide]: the EC50 lay in the range of 100 to 1000 nM. `O=C(O)c1ccc2nc(N3CCC(COCc4c(-c5c(Cl)cccc5Cl)noc4C4CC4)CC3)sc2c1` [Example 48] displayed a 50% effective concentration (EC50) of 100 to 1000 nM. Compound “(S)-2-(2-((5-cyclopropyl-3-(2,6-dichlorophenyl)isoxazol-4-yl)methoxy)-7-(fluromethyl)-6-azaspiro[3.4]octan-6-yl)-4-methoxybenzo[d]thiazole-6-carboxylic Acid [Example 20]” returned an EC50 of 100 to 1000 nM.
